Laboratory results as given in patent US11154515B2, “Pharmaceutical compositions comprising cannabidiol and beta-caryophyllene and methods for their use” (priority 2017, dated 2021).

Legend:
[1] = tested on: pro-inflammatory cytokine expression (IL-1α, IL-1β, IL-6, IL-8, TNFα) in HaCaT keratinocytes; experiment: Inflammatory epidermal keratinocyte models (SDS, Nickel, Carvacrol, SLIGRL, UVB, Poly p(I:C), SEB/TSLP), cytokine RT-qPCR; type: cell-based, human; conditions: seven keratinocyte inflammation models
[2] = tested on: OXA-induced ear edema, ACD mouse model; experiment: Oxazolone-induced allergic contact dermatitis model, ear edema; type: in vivo
Experimental: Prednisolone was solved in 1:1 of DMSO/saline and was administered topically (15-15 μL to the inner and outer surface of the ears). All other test compounds were solved in 96% ethanol. All solutions of all the concentrations were prepared freshly on the first day of every experiment and were stored at 4° C., then shaken properly before the treatments.
Anesthesia was induced by ketamine (Richter Gedeon, Budapest, Hungary) (100 mg/kg i.p., repeated as required) with xylazine (Lavet Ltd., Budapest, Hungary) (5 mg/kg i.m.). Animals were sensitized on two consecutive days by painting 2% oxazolone (50-50 μL, Merck KGaA) on the shaved abdomen. On the 6th day the right ears were smeared with 2% oxazolone (OXA) dissolved in 96% ethanol: 15-15 μL solution was applied on each of the inner and outer surfaces. Control ears were treated with 96% ethanol in the same way. Drug-treated groups were treated with 15-15 μL of drug solution smeared to the inner and outer side of the ears every 4 hrs of the experiment after oxazolone treatment. A schematic of the experimental protocol is provided in FIG. 24 and the experimental groups are defined below. • (a) Group 1: Ethanol-treated Controls: left ear: 96% ethanol, right ear: 2% oxazolone • (b) Group 2: 1 μM CBD • (c) Group 3: 10 μM CBD • (d) Group 4: 1 μM HU101 • (e) Group 5: 10 μMHU101
Ear thickness was measured with an engineer's micrometer, with 0.1 mm accuracy, before challenge with test agents and after the challenge at different time points. Data are expressed as % increase of ear thickness compared to the initial values.
Results are expressed as mean±SEM. Comparisons between different treatment groups were performed using two-way ANOVA followed by Sidak's post hoc test for skin thickness and one-way ANOVA followed by Bonferroni's post hoc test for MPO and vascular leakage. * p<0.05 was considered to be significant.

| SMILES | rank order of efficacy among the F-CBDs [1] | efficacy relative to the efficacy of prednisolone ([2]; 1 μM topical, depending on the time-point) | Effect in ACD mouse model, significance of ear edema difference ([2]; OXA + CBD 10 μM vs. OXA + HUF101 1 μM, 24 h) | Effect in ACD mouse model, significance of ear edema difference ([2]; OXA + CBD 10 μM vs. OXA + HUF101 1 μM, 48 h) | Effect in ACD mouse model, significance of ear edema difference ([2]; OXA + CBD 10 μM vs. OXA + HUF101 1 μM, 56 h) | Effect in ACD mouse model, significance of ear edema difference ([2]; OXA + CBD 10 μM vs. OXA + HUF101 10 μM, 48 h) | Effect in ACD mouse model, significance of ear edema difference ([2]; OXA + CBD 10 μM vs. OXA + HUF101 10 μM, 56 h) | Effect in ACD mouse model, significance of ear edema difference ([2]; OXA vs. OXA + HUF101 1 μM, 24 h) | Effect in ACD mouse model, significance of ear edema difference ([2]; OXA vs. OXA + HUF101 1 μM, 48 h) | Effect in ACD mouse model, significance of ear edema difference ([2]; OXA vs. OXA + HUF101 1 μM, 56 h) | Effect in ACD mouse model, significance of ear edema difference ([2]; OXA vs. OXA + HUF101 10 μM, 24 h) | Effect in ACD mouse model, significance of ear edema difference ([2]; OXA vs. OXA + HUF101 10 μM, 48 h) | Effect in ACD mouse model, significance of ear edema difference ([2]; OXA vs. OXA + HUF101 10 μM, 56 h) | anti-inflammatory actions on OXA-induced edema ([2]; both doses (1 μM and 10 μM), topical, all time-points) | effects compared with 1 μM or 10 μM CBD ([2]; both doses, statistically significant compared to 10 μM CBD) | efficacy of 1 μM compared with 10 μM ([2]; topical) | reduction in OXA-induced edema formation ([2]; positive control, topical) |
| --- | --- | --- | --- | --- | --- | --- | --- | --- | --- | --- | --- | --- | --- | --- | --- | --- | --- |
| C=C(C)[C@@H]1CCC(C)=C[C@H]1c1c(O)cc(CCCCC)c(F)c1O [HUF101] | HUF103>HU559a>HUF101 | 40-60% | ** (** p ≤ 0.01) | *** (*** p ≤ 0.001) | *** (*** p ≤ 0.001) | ** (** p ≤ 0.01) | *** (*** p ≤ 0.001) | *** (*** p ≤ 0.001) | *** (*** p ≤ 0.001) | *** (*** p ≤ 0.001) | *** (*** p ≤ 0.001) | *** (*** p ≤ 0.001) | * (* p ≤ 0.05) | statistically significant anti-inflammatory actions at all time-points | more robust effects | somewhat higher |  |
| C[C@]12C=CC(=O)C=C1CC[C@@H]1[C@@H]2[C@@H](O)C[C@@]2(C)[C@H]1CC[C@]2(O)C(=O)CO [Prednisolone, reference compound] |  |  |  |  |  |  |  |  |  |  |  |  |  |  |  |  | most robust reduction |
